Target: T1, RecG (Thermotoga maritima, UniProt Q9WY48)
T1 construct: made in house
T1 sequence (Q9WY48 1-780): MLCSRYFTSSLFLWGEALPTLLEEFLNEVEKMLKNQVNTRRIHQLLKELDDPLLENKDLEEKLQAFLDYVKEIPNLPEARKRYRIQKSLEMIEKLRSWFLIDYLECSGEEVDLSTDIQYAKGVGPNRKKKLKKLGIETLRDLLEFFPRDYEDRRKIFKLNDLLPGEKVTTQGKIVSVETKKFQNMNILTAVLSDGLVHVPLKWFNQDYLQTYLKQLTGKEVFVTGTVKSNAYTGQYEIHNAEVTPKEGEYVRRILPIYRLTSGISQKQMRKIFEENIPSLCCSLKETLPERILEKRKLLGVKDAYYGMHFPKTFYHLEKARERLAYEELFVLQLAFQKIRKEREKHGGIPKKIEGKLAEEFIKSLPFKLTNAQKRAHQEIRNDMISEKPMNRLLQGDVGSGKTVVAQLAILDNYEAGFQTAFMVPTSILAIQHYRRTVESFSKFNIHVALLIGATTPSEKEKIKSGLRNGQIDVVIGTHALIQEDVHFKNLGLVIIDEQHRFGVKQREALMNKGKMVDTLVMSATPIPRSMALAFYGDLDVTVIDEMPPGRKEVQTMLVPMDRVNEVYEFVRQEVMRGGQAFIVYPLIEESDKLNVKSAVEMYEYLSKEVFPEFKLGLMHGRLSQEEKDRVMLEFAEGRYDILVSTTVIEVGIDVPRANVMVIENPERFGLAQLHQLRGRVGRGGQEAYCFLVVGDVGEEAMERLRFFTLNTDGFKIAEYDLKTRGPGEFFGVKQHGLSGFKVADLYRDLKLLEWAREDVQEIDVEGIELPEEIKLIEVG
Experiment: Stopped-flow mantATP binding in the absence of DNA
Description: The kinetics of specific steps of the ATPase cycle were investigated in the absence of DNA, to determine which are modulated by the interaction with DNA. For the association measurements between RecG and mantATP, RecG was mixed with excess mantATP in the stopped-flow apparatus and the fluorescence followed with time. Following fitting by single exponentials, there was a linear relationship between the observed rate constant and nucleotide concentration (Figure S3A).
As done for the RecG⋅DNA complex, measurements were also taken with an excess of RecG over mantATP (Figure S3B). A large, relative rapid, increase in mant fluorescence was observed followed by a small gradual increase. The rate constants are consistent with those at excess mantATP. Under the same conditions of excess RecG over mantATP, mantATP cleavage (acid quench) and Pi release were measured (Figure S3B). […] The cleavage step rate constant was 4×10^−4 s^−1, ∼10^3 slower than in the presence of DNA. […] The cleavage step was greatly stimulated by DNA.
Supplementary file pone.0038270.s003.tif: Figure S3 Kinetic measurements in the absence of DNA. (A) Association kinetics with mantATP. Dependence of the observed rate constants on mantATP concentration from mixing 0.5 µM RecG with excess mantATP under the same conditions as Figure 3. Points shown are typically an average of three individual measurements. The best linear fit gives a slope of 0.4 (±0.15) µM^−1 s^−1 and intercept 1.7 (±0.6) s^−1. (B) Fluorescence trace upon mixing 2.5 µM RecG with 0.5 µM mantATP under the conditions of Figure 4. The trace was fitted by an exponential and a slope giving rates of 0.42 (±0.12) s^−1 for the former. Note that as the fluorescence slowly increases beyond the time course, it was not possible to calibrate the ordinate. Inset: Hydrolysis and Pi release for these conditions. The circles represent single time points for a quenched-flow measurement of mantADP formation. Pi release kinetics (continuous line) were measured for the same mixture containing 10 µM MDCC-PBP. (TIF) Click here for additional data file.

## CNc1ccccc1C(=O)O[C@H]1[C@@H](O)[C@H](n2cnc3c(N)ncnc32)O[C@@H]1COP(=O)(O)OP(=O)(O)OP(=O)(O)O [mantATP, 2′(3′)-O-(N-methylanthraniloyl)ATP]
0.5 µM RecG, excess mantATP
  intercept (dissociation): 1.7 (±0.6) s^−1
  second order association rate constant (slope): 0.4 (±0.15) µM^−1s^−1
2.5 µM RecG with 0.5 µM mantATP
  rate of exponential fluorescence increase: 0.42 (±0.12) s^−1
From intercept and slope
  Kd: 4.25 µM

From article PMC3368886, “ATPase Cycle and DNA Unwinding Kinetics of RecG Helicase” (PLoS ONE, 2012)
